Experiments:
[1] = Lipophilicity, modified shake-flask method; type: physicochemical
Experimental: The lipophilicity of [^99mTc]Tc-PSMA-HSG was determined via a modified shake-flask method as described.

[2] = test system: LNCaP xenograft bearing NSG mice; experiment: Small animal SPECT/CT with 2-PMPA blocking; type: in vivo, mouse; conditions: 1 nmol peptide, 1 µmol 2-PMPA, SPECT/CT 2–4 h p.i.
Experimental: SPECT/CT images were acquired using an Albira Si PET/SPECT/CT (Bruker Biospin Corporation, Woodbridge, CT, USA) instrument. Mice were injected with the respective ^99mTc-labeled tracer (24–34 MBq; the injected peptide amount was kept constant at 1 nmol/animal), with (blocking) or without (control) coinjection of 226 µg (1 µmol) 2-PMPA. […] For SPECT imaging, static acquisitions of 2 h (accumulation of 1–2 × 10^6 events) were acquired with the following parameters: photopeak at 140 keV ± 30%, axial FOV 82.5 mm using a single pinhole collimator. For reconstruction, an ordered subset expectation-maximization algorithm (OSEM) with two iterations was used, and scatter correction was applied. For CT, the following parameters were used: 400 µA intensity and 35 kV voltage, 600 projections. Images were reconstructed using a filtered back-projection (FBP) algorithm with de-ringing correction. Fused representative SPECT/CT images were acquired using the PMOD software (PMOD technologies, version 3.709, Zurich, Switzerland).

in vivo = conditions: male, NSG, mouse, iv, 1 nmol/mouse, total radioactivity, biodistribution
Experimental: As documented in the literature, engineered PC3-Pip cells express particularly high PSMA levels, which are not representative for the situation in human tumors (mean number of PSMA binding sites = 4.9 × 10^6 sites/cell for PC3-Pip cells vs. 5.9 × 10^5 sites/cell for LNCaP [60]). Thus, to correlate quantitative data with in vivo/ex vivo fluorescence signals, a biodistribution study was conducted under the same conditions as the fluorescence imaging. NSG mice bearing PC3-Pip (PSMA+) and PC3 WT (PSMA-) xenografts on opposite shoulders received [^99mTc]Tc-PSMA-HSG (1 nmol), and biodistribution was assessed at 2 h p.i. (Supplementary Table 1). The overall distribution matched previous data from LNCaP-bearing mice (Table 3), but tumor uptake was over twice as high (26.6 ± 5.0%iD/g). Low uptake in PC3 WT tumors (1.6 ± 0.3%iD/g) confirmed PSMA-specificity.
PC-3 PIP xenografts were established by subcutaneous injection of 5 × 10^6 PC3-PIP cells/mouse using 8–12-week-old male NSG mice (in-house breeding, Dpt. of Oncology, University of Lausanne) as previously described. Tumors reached a size of 4-8 mm in diameter after 5-6 days and were then immediately used for the fluorescence imaging studies.

[3] = target: human serum albumin (HSA) (Homo sapiens, UniProt P02768); experiment: Plasma protein binding (B50), ultrafiltration, HSA; type: in vitro ADME
Experimental: A detailed experimental procedure is provided in the Supplementary Material. […] Briefly, protein solutions (maximum concentration: […] Samples were briefly vortexed and incubated for 30 min at 37 °C. […] The filter units were then removed from the centrifugal tubes and washed twice with 300 µL PBS to recover the protein fraction. The activity in the filtrate, filter and protein fraction were then quantified using a γ-counter. […] The percentages of radioligand bound to the respective proteins are represented as means ± standard deviation (SD) of three independent experiments.

PSMA = PSMA (Homo sapiens, UniProt Q04609); experiment: Radioguided surgery (RGS) with gamma probe, ex vivo fluorescence microscopy; type: in vivo; set-up: Five patients with a diagnosis of initial (n = 4) or biochemical recurrence of (n = 1) histologically proven prostate cancer; from tissue; host or cells: prostate cancer patients: primary tumour, lymph nodes, resected tissue sections
Experimental: Radioguided open surgery was performed the day after tracer injection by an experienced urologic surgeon (DW; more than 20 years of surgical experience) in collaboration with a nuclear medicine physician. Using a conventional gamma probe (C-Trak®, SanuC GmbH, Jahnsdorf, Germany), suspicious lymph nodes (defined as spots with signal-to-background ratios ≥ 2) were excised separately followed by pelvic lymph node dissection. […] Fresh frozen tissue sections were prepared using a standard cryosectioning protocol with 10–20 μm sections mounted for fluorescence imaging. These slides were stored on dry ice prior to fluorescence microscopy to preserve tissue integrity. Fluorescence microscopy of patient samples was performed using an Axioscan 7 slide scanner (Zeiss) equipped with a Colibri 7 LED light source and a 20×/0.8 NA Plan-Apochromat objective. Cy5 fluorescence was acquired using a filter set with excitation 640/30 nm, dichroic mirror 660 nm, and emission 690/50 nm. Image acquisition and analysis were performed using ZEN Blue 3.5 software (Zeiss). For immunohistochemical analysis, adjacent formalin-fixed, paraffin-embedded tissue sections were cut at 2 μm thickness and stained for PSMA (clone EP192 BioSB, BIOO Scientific) using a Ventana Benchmark automated platform (Bio SB, Santa Barbara, CA, USA). Conventional hematoxylin and eosin (H&E) and immunohistochemical (for PSMA) staining was performed on corresponding tissue sections to enable morphologic correlation and verification of target expression, respectively. For further information on immunhistochemical staining please refer to the Supplementary Material.

[4] = exploratory cohort, five patients

PSMA, sequence (Q04609 whole entry): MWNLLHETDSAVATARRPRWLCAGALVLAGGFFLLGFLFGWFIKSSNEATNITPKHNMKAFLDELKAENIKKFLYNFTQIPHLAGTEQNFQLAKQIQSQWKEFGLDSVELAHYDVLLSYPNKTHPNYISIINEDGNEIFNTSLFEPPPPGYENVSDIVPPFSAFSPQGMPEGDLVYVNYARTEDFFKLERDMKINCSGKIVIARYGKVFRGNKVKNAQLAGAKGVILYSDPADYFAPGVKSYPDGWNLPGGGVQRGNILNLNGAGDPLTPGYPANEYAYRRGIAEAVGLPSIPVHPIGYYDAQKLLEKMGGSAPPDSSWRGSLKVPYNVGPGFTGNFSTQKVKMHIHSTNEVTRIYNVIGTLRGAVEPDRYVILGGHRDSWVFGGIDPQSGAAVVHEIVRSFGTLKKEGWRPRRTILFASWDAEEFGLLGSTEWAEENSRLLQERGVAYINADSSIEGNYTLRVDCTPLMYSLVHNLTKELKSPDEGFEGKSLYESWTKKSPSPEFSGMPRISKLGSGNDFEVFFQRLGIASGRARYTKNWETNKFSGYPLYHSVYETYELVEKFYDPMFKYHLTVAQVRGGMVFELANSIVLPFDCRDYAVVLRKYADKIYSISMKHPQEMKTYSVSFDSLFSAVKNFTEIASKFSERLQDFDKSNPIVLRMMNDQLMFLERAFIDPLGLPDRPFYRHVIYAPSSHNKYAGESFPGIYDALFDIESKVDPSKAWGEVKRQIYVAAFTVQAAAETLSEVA
human serum albumin (HSA), sequence (P02768 25-609): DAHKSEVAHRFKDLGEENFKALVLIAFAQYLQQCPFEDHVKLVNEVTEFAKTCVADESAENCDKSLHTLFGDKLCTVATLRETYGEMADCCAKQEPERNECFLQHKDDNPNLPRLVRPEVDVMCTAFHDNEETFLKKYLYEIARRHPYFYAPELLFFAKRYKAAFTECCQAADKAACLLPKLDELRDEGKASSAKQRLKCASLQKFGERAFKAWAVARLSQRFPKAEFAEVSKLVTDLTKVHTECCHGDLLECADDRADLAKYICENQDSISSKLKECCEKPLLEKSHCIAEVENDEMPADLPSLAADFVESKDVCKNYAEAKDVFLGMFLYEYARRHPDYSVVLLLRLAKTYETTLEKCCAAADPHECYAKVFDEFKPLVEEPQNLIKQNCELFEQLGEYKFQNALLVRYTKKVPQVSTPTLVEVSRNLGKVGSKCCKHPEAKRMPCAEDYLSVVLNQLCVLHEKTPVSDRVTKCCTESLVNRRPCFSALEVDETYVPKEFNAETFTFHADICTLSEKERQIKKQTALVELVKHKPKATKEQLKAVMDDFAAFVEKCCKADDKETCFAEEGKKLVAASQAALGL

SMILES: C[N+]1=C(/C=C/C=C/C=C2/N(CCCCCC(=O)NCCCC[C@@H](NC(=O)[C@@H](CO)NC(=O)[C@@H](CO)NC(=O)[C@@H](CO)NC(=O)CS)C(=O)N[C@H](Cc3ccc(O)cc3)C(=O)N[C@H](Cc3ccc4ccccc4c3)C(=O)N[C@H](CCCCNC(=O)CCCCCCC(=O)NCCCC[C@H](NC(=O)N[C@@H](CCC(=O)O)C(=O)O)C(=O)O)C(=O)O)c3ccc(S(=O)(=O)[O-])cc3C2(C)C)C(C)(C)c2cc(S(=O)(=O)O)ccc21 [[^99mTc]Tc-PSMA-HSG, metal not drawn]
- logD [1]: -2.94
- PSMA-specificity of tumor uptake, coinjection of 2-PMPA [2]: successfully blocked tumor accumulation
- tissue uptake at 2 h (in vivo; PC3-Pip tumor): 26.6 ± 5 %ID/g
- tissue uptake at 2 h (in vivo; PC3 WT tumor): 1.6 ± 0.3 %ID/g
- tissue uptake at 2 h (in vivo; blood): 2.8 ± 0.4 %ID/g
- tissue uptake at 2 h (in vivo; heart): 1.5 ± 0.3 %ID/g
- tissue uptake at 2 h (in vivo; intestines): 0.9 ± 0.1 %ID/g
- tissue uptake at 2 h (in vivo; kidneys): 100 ± 8.2 %ID/g
- tissue uptake at 2 h (in vivo; liver): 2.9 ± 0.5 %ID/g
- tissue uptake at 2 h (in vivo; lung): 4.1 ± 1.2 %ID/g
- tissue uptake at 2 h (in vivo; muscle): 0.6 ± 0.1 %ID/g
- tissue uptake at 2 h (in vivo; pancreas): 0.9 ± 0.2 %ID/g
- tissue uptake at 2 h (in vivo; salivary glands): 2.2 ± 0.4 %ID/g
- tissue uptake at 2 h (in vivo; spleen): 8.2 ± 0.7 %ID/g
- tissue uptake at 2 h (in vivo; stomach): 1.5 ± 0.1 %ID/g
- B50 HSA [3]: 273 ± 36
- RGS, ex vivo activity, left external iliac LN (PSMA; Patient #1): 190 cps
- RGS, ex vivo activity, right external iliac LN (PSMA; Patient #1): 230 cps
- RGS, in vivo activity measurements (PSMA; Patient #1, 53 µg): intraoperative detection feasible; after resection no further tracer accumulation detected
- RGS, in and ex vivo activity measurements (PSMA; Patient #2, 53 µg): In and ex vivo activity measurements: No positive LN
- RGS, in and ex vivo activity measurements (PSMA; Patient #3, 53 µg): In and ex vivo activity measurements: No positive LN
- RGS, ex vivo activity, right iliac LN (2 adjacent LNs) (PSMA; Patient #4): 20 cps
- RGS, ex vivo activity, right iliac LN (first listed) (PSMA; Patient #4): 50 cps
- RGS, ex vivo activity, right iliac LN (last listed) (PSMA; Patient #4): 15 cps
- RGS, in vivo activity measurements (PSMA; Patient #4, 350 µg): No detection of tracer-positive lesions
- specificity of uptake in resected lymph nodes, fluorescence microscopy (PSMA; Patient #4, 350 µg): highly PSMA-specific
- RGS, in and ex vivo activity measurements (PSMA; Patient #5, 250 µg): In and ex vivo activity measurements: No positive LN
- NPV of RGS (PSMA; [4]): 100%
- PPV of RGS (PSMA; [4]): 100%
- sensitivity of RGS (abstract: selectivity) (PSMA; [4]): 100%
- specificity of RGS (PSMA; [4]): 100%
- lymph node metastases in tracer-avid lesions, intraoperative gamma detection (PSMA; in vivo): 6/6
- true negative lymph nodes identified by RGS (PSMA; patient sub-cohort): 53/53
- true positive lymph nodes identified by RGS (PSMA; patient sub-cohort): 4/4

Source: publication PMC13013135, “[^99mTc]Tc-PSMA-HSG for PSMA-targeted Hybrid Surgical Guidance: a new addition to the PSMA-I&S/I&T family” (European Journal of Nuclear Medicine and Molecular Imaging, 2025)
